“And” between values parts separate entries of the source, which are not always exact repeats. Equal entries are not always repeated.
Columns and labels:
[1] = tested on: guinea pig tracheal smooth muscle cells; experiment: Measurement of cAMP in TSMCs; type: cell-based
Procedure: (§1) Cell Culture of Tracheal Smooth Muscle: Guinea pigs (350-450 g) were injected i.p. with a lethal dose of pentobarbital. The tracheas were excised and cut longitudinally through the cartilage. Using a dissecting microscope, TSM strips were dissected from the surrounding parentchyma. The epithelium was removed from the luminal surface, and bands of TSM were gently separated from the underlying connective tissue. Then TSM strips were chopped into small sections (1 mm^3) and incubated in Hanks' balanced salt solution (138 mM NaCl, 4 mM NaHCO3, 5 mM KCl, 0.3 mM KH2PO4, 0.3 mM Na2HPO4, and 1.0 mM glucose) with 0.05% elastase type IV and 0.2% collagenase type IV (Invitrogen, Carlsbad, Calif.) for 30 min at 37_ with gentle shaking. The solution of dissociated smooth muscle cells was centrifuged (6 min at 500 g), and the pellet was resuspended in 1:1 Dulbecco's modified Eagle's medium/Ham's F-12 medium supplemented with 10% fetal bovine serum, 0.244% NaHCO3, and 1% penicillin/streptomycin. Cells were cultured in 25-cm^2 flasks at 37_ in humidified air containing 5% CO2. Confluent cells were detached with 0.25% trypsin-0.02% EDTA at 37_and then subcultured to establish secondary cultures. Cultures were maintained for no more than four passages. They were identified as smooth muscle cells by the typical hill-and-valley appearance, and cellular homogeneity was further confirmed by the presence of smooth muscle specific _-myosin and _-actin immunoreactivity. Indirect immunofluorescence staining for a variety of antigens was carried out by first plating the cells on chamber slides, fixing the cells in 3.7% formaldehyde-phosphate-buffered saline for 10 min, and permeabilizing the cells with phosphate-buffered saline and 0.1% Triton X-100. Cells were then stained with either a mouse monoclonal antibody directed against the amino-terminal 10 amino acids of _-smooth muscle actin or _-myosin (Roche Diagnostics, Indianapolis, Ind.). All cells were stained with fluorescein-labeled goat anti-mouse IgG antibody (Roche Diagnostics).
(§2) Measurement of cAMP and cGMP: Intracellular concentrations of cAMP and cGMP in TSMCs were measured as in our previous reports (Wu B N, Lin R J, Lin C Y, Shen K P, Chiang L C, and Chen I J (2001) A xanthine-based KMUP-1 with cyclic GMP enhancing and K^+ channels opening activities in rat aortic smooth muscle. Br J Pharmacol 134:265-274; Lin R J, Wu B N, Lo Y C, Shen K P, Lin Y T, Huang C H, and Chen I J (2002) KMUP-1 relaxes rabbit corpus cavernosum smooth muscle in vitro and in vivo: involvement of cyclic GMP and K(+) channels, Br J Pharmacol 135:1159-1166). In brief, cells were finally grown in 24-well plates (10^5 cells/well). At confluence, monolayer cells were washed with phosphate-buffered saline and then incubated with KMUP-3 (0.01-100 _M) for 20 min at 37_ in medium. […] The reaction was terminated by replacement of medium with 1 ml of ice-cold 1 N hydrochloric acid. Cells suspensions were sonicated and then centrifuged at 2500 g for 15 min at 4_. Then, the supernatants were lyophilized and the cAMP and cGMP of each sample were determined using commercially available radioimmunoassay kits (GE Healthcare, Little Chalfont, Buckinghamshire, UK).

[2] = tested on: cultured guinea pig tracheal smooth muscle cells; experiment: Expression of PKA and PKG (Western blot); type: cell-based
Procedure: as §1
Expression of PKA and PKG: The expression of PKA and PKG was determined by Western blot as previously described by Wu et al. and Murthy et al. (Wu B N, Lin R J, Lo Y C, Shen K P, Wang C C, Lin Y T, and Chen I J (2004) KMUP-1, a xanthine derivatives, induces relaxation of guinea-pig isolated trachea: the role of the epithelium, cyclic nucleotides and K^+ channels. Br J Pharmacol 142:1105-1114; Murthy K S, Zhou H, and Makhlouf G M (2002) PKA-dependent activation of PDE3A and PDE4 and inhibition of adenylyl cyclase V/VI in smooth muscle. Am J Physiol 282:C508-C517). Guinea pig TSMCs were incubated with KMUP-3 for 30 min. Each of the cell lysates, each containing 1 _g of cellular protein, was electrophoresed in 7.5% SDS-polyacrylamide gel electrophoresis and then transferred to polyvinylidene diflouride membrane (Millipore Corporation, Billerica, Mass.). The membrane was stained with Ponceau S to verify the integrity of the transferred proteins and to monitor the unbiased transfer of all protein samples. The membrane was then washed with 25 ml of TBS (100 mM NaCl, 0.1% and 10 mM Tris-HCl, pH 7.5) for 5 min at room temperature and incubated in 25 ml of blocking buffer (TBS plus 0.1% Tween 20 and 5% nonfat milk) overnight at 4_. In the measurement of protein, the membrane was incubated with appropriate PKARI or PKA1—1— primary antibody (diluted 1:250) in 2 ml of blocking buffer for 1 h at room temperature, washed three times for 5 min each with 15 ml of Tris-buffered saline/Tween 20 (TBS plus 0.1% Tween 20), incubated with horseradish peroxidase-conjugated secondary antibody (1:10,000) in 15 ml of blocking buffer with gentle agitation for 1 h at room temperature, and finally washed three times for 5 min each time with 15 ml of Tris-buffered saline/Tween 20. The membrane was then subjected to enhanced chemiluminescence (GE Healthcare) for the detection of the specific antigen.

[3] = tested on: guinea pig tracheal smooth muscle cells; experiment: Measurement of cGMP in TSMCs; type: cell-based; conditions: for GMP level: basal 1.18±0.06
Procedure: as §1, §2

[4] = molecular target: T1, PDE5 purified from human platelets (Homo sapiens, UniProt O76074); experiment: Phosphodiesterase activity, PDE5; type: biochemical; conditions: 10 _M compound, n = 3
T1 construct: PDE3 and PDE5 purified from human platelets; from tissue; host or cells: human platelets
Procedure: The reaction was terminated by boiling for 2 min, and the resulting GMP was converted to adenosine by the addition of 10 mg/ml snake venom nucleotidase, which was followed by a further incubation at 37_ for 10 min. Unhydrolyzed cGMP was bound to AG1-X2 resin, and the remaining [^3H]guanosine in the aqueous phase was quantitated by scintillation counting.

## Cn1c(=O)c2c(ncn2CCN2CCN(c3ccc([N+](=O)[O-])cc3)CC2)n(C)c1=O [KMUP-3]
[1]; 0.01 _M, 20 min, basal 62.6±6.4
  cAMP level: 80.2±2.5 pmol/mg protein
[1]; 0.1 _M, 20 min, basal 62.6±6.4
  cAMP level: 91.3±3.4 pmol/mg protein
[1]; 1 _M, 20 min, basal 62.6±6.4
  cAMP level: 97.9±2.5 pmol/mg protein
[1]; 10 _M, 20 min, basal 62.6±6.4
  cAMP level: 110.7±4.5 pmol/mg protein
[1]; 100 _M compound plus SQ 22536 (100 _M) pretreatment
  cAMP level in presence of SQ 22536: 74.51 ± 3.18 pmol/mg protein
[1]; 100 _M, 20 min
  cAMP accumulation versus vehicle (FIG. 6): significant elevations
[1]; 100 _M, 20 min, basal/vehicle 62.6±6.4
  cAMP level: 127.5±4.8 pmol/mg protein and 128.72 ± 4.57 pmol/mg protein
[2]; 1 _M, 30 min
  expression of PKA1—1— (FIG. 7(B)): increased the expression of PKA1—1—
  expression of immunoreactive PKARI protein (FIG. 7(A)): increased the expression of PKARI
[2]; ODQ (10_M) 30 min prior to compound (1 _M)
  PKG protein after ODQ pretreatment: significantly reduced
[2]; ODQ (10 _M) 30 min prior to compound, unpublished data
  PKA protein expression after ODQ pretreatment: did not significantly affect
[2]; SQ 22536 (100 _M) 30 min prior to compound (1 _M)
  expression of PKARI after SQ 22536 pretreatment: attenuated
[3]; 0.01 _M, 20 min
  GMP level: 1.62±0.05 pmol/mg protein
[3]; 0.1 _M, 20 min
  GMP level: 1.73±0.01 pmol/mg protein
[3]; 1 _M, 20 min
  GMP level: 1.75±0.04 pmol/mg protein
[3]; 10 _M, 20 min
  GMP level: 1.86±0.05 pmol/mg protein
[3]; 100 _M compound plus L-NAME (100 _M) pretreatment
  Cyclic GMP level in presence of L-NAME: 1.28 ± 0.01 pmol/mg protein
[3]; 100 _M compound plus ODQ (10 _M) pretreatment
  Cyclic GMP level in presence of ODQ: 1.35 ± 0.04 pmol/mg protein
[3]; 100 _M, 20 min
  amounts of cGMP versus vehicle (FIG. 6): significantly enhances
[3]; 100 _M, 20 min, basal/vehicle 1.18±0.06
  Cyclic GMP level: 1.98±0.09 pmol/mg protein and 1.98 ± 0.08 pmol/mg protein
[4]
  PDE5 Inhibition: 48 ± 1.9 %
